Legend:
[1] = system: Cells containing hepatitis C virus (HCV) replicon; experiment: HCV replicon cell assay (Taqman RT-PCR of HCV RNA); assay type: cell-based; settings: 50% inhibition of HCV RNA level, 48-hour incubation, HCV replicon cells, read-out: IC50
Procedure: HCV Replicon Cell Assay Protocol
Cells containing hepatitis C virus (HCV) replicon were maintained in DMEM containing 10% fetal bovine serum (FBS), 0.25 mg per ml of G418, with appropriate supplements (media A).
On day 1, replicon cell monolayer was treated with a trypsin:EDTA mixture, removed, and then media A was diluted into a final concentration of 100,000 cells per ml wit. 10,000 cells in 100 ul were plated into each well of a 96-well tissue culture plate, and cultured overnight in a tissue culture incubator at 37° C.
On day 2, compounds (in 100% DMSO) were serially diluted into DMEM containing 2% FBS, 0.5% DMSO, with appropriate supplements (media B). The final concentration of DMSO was maintained at 0.5% throughout the dilution series.
Media on the replicon cell monolayer was removed, and then media B containing various concentrations of compounds was added. Media B without any compound was added to other wells as no compound controls.
Cells were incubated with compound or 0.5% DMSO in media B for 48 hours in a tissue culture incubator at 37° C. At the end of the 48-hour incubation, the media was removed, and the replicon cell monolayer was washed once with PBS and stored at −80° C. prior to RNA extraction.
Culture plates with treated replicon cell monolayers were thawed, and a fixed amount of another RNA virus, such as Bovine Viral Diarrhea Virus (BVDV) was added to cells in each well. RNA extraction reagents (such as reagents from RNeasy kits) were added to the cells immediately to avoid degradation of RNA. Total RNA was extracted according the instruction of manufacturer with modification to improve extraction efficiency and consistency. Finally, total cellular RNA, including HCV replicon RNA, was eluted and stored at −80° C. until further processing.
A Taqman real-time RT-PCR quantification assay was set up with two sets of specific primers and probe. One was for HCV and the other was for BVDV. Total RNA extractants from treated HCV replicon cells was added to the PCR reactions for quantification of both HCV and BVDV RNA in the same PCR well. Experimental failure was flagged and rejected based on the level of BVDV RNA in each well. The level of HCV RNA in each well was calculated according to a standard curve run in the same PCR plate. The percentage of inhibition or decrease of HCV RNA level due to compound treatment was calculated using the DMSO or no compound control as 0% of inhibition. The IC50 (concentration at which 50% inhibition of HCV RNA level is observed) was calculated from the titration curve of any given compound.

[2] = target: HCV NS3-NS4A protease (tNS3 with KK4A) (Hepatitis C virus genotype 1a, UniProt P27958); experiment: HCV Ki assay (HPLC microbore separation of 5AB substrate and products); assay type: biochemical
Sequence of HCV NS3-NS4A protease (tNS3 with KK4A) (P27958 1027-1208): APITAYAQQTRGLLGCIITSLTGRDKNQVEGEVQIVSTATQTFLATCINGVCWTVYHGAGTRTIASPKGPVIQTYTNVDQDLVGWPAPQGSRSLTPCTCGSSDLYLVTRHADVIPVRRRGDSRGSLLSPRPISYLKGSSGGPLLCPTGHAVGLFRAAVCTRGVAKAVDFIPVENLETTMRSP
Procedure: HPLC Microbore Method for Separation of 5AB Substrate and Products
• Substrate: • NH2-Glu-Asp-Val-Val-(alpha)Abu-Cys-Ser-Met-Ser-Tyr-COOH
A stock solution of 20 mM 5AB (or concentration of your choice) was made in DMSO w/ 0.2M DTT. This was stored in aliquots at −20 C.
Buffer: 50 mM HEPES, pH 7.8; 20% glycerol; 100 mM NaCl
Total assay volume was 100 μL
The buffer, KK4A, DTT, and tNS3 were combined; distributed 78 μL each into wells of 96 well plate. This was incubated at 30 C for ˜5–10 min.
2.5 μL of appropriate concentration of test compound was dissolved in DMSO (DMSO only for control) and added to each well. This was incubated at room temperature for 15 min.
Initiated reaction by addition of 20 μL of 250 μM 5AB substrate (25 μM concentration is equivalent or slightly lower than the Km for 5AB).
Incubated for 20 min at 30 C.
Terminated reaction by addition of 25 μL of 10% TFA
Transferred 120 μL aliquots to HPLC vials
Separated SMSY product from substrate and KK4A by the following method:
Microbore Separation Method:
Instrumentation: Agilent 1100
• Degasser G1322A • Binary pump G1312A • Autosampler G1313A • Column thermostated chamber G1316A • Diode array detector G1315A Column:
Phenomenex Jupiter; 5 micron C18; 300 angstroms; 150×2 mm; P/O 00F-4053-B0 • Column thermostat: 40 C • Injection volume: 100 μL • Solvent A=HPLC grade water+0.1% TFA • Solvent B=HPLC grade acetonitrile+0.1% TFA
• Stop time: 17 min • Post-run time: 10 min.

Compound	IC50 [1]	Ki [2]
CCC[C@H](NC(=O)[C@@H]1C[C@@H]2CCCC[C@@H]2N1C(=O)[C@@H](NC(=O)[C@@H](NC(=O)c1cnccn1)C1CCCCC1)C(C)(C)C)C(=O)C(=O)N[C@@H]1CCOC1 [Compound 47a]	1000 to 5000 nM	500 to 1000 nM
C=CCNC(=O)C(=O)[C@H](CCC)NC(=O)[C@@H]1C[C@@H]2CCCC[C@@H]2N1C(=O)[C@@H](NC(=O)[C@@H](NC(=O)c1cnccn1)C1CCCCC1)C(C)(C)C [Compound 51a]	500 to 1000 nM	< 500 nM
CCC[C@H](NC(=O)[C@@H]1C[C@@H]2CCCC[C@@H]2N1C(=O)[C@@H](NC(=O)[C@@H](NC(=O)c1[nH]c(C)c(C(C)=O)c1C#N)C1CCCCC1)C(C)(C)C)C(=O)C(=O)NC1CC1 [Compound 52a]	< 500 nM	< 500 nM
CCC[C@H](NC(=O)[C@@H]1C[C@@H]2CCCC[C@@H]2N1C(=O)[C@@H](NC(=O)[C@@H](NC(=O)c1[nH]c(C)c(C(C)=O)c1-c1ccccc1)C1CCCCC1)C(C)(C)C)C(=O)C(=O)NC1CC1 [Compound 53a]	< 500 nM	< 500 nM
CCC[C@@H](NC(=O)[C@@H]1C[C@@H]2CCCC[C@@H]2N1C(=O)[C@@H](NC(=O)[C@@H](NC(=O)c1cnccn1)C1CCCCC1)C(C)(C)C)C(=O)C(=O)NC1CC1 [Compound 60a]	1000 to 5000 nM	1000 to 5000 nM
CC(=O)c1c(C(=O)N[C@H](C(=O)N[C@H](C(=O)N2[C@H](C(=O)N[C@@H](CC(F)F)C(=O)C(=O)NC3CC3)C[C@@H]3CCCC[C@@H]32)C(C)(C)C)C2CCCCC2)[nH]c(C)c1C [Compound 61a]	< 500 nM	< 500 nM
CCC[C@H](NC(=O)[C@@H]1[C@@H](C2CCCCC2)CCN1C(=O)[C@@H](NC(=O)[C@@H](NC(=O)c1[nH]c(C)c(C)c1C(C)=O)C1CCCCC1)C(C)(C)C)C(=O)C(=O)NC1CC1 [Compound 63]	500 to 1000 nM	< 500 nM
CCC[C@H](NC(=O)[C@@H]1[C@@H](C(C)C)CCN1C(=O)[C@@H](NC(=O)[C@@H](NC(=O)c1[nH]c(C)c(C)c1C(C)=O)C1CCCCC1)C(C)(C)C)C(=O)C(=O)NC1CC1 [Compound 64]	< 500 nM	< 500 nM
CCC[C@H](NC(=O)[C@@H]1[C@H]2CC[C@H](C2)N1C(=O)[C@@H](NC(=O)[C@@H](NC(=O)c1[nH]c(C)c(C)c1C(C)=O)C1CCCCC1)C(C)(C)C)C(=O)C(=O)NC1CC1 [Compound 65]	< 500 nM	< 500 nM
CCC[C@H](NC(=O)[C@@H]1C[C@@H](Oc2ncc(Cl)cn2)CN1C(=O)[C@@H](NC(=O)[C@@H](NC(=O)c1[nH]c(C)c(C)c1C(C)=O)C1CCCCC1)C(C)(C)C)C(=O)C(=O)NC1CC1 [Compound 67]	< 500 nM	< 500 nM
CCC[C@H](NC(=O)[C@@H]1[C@H]2CCC[C@H]2CN1C(=O)[C@@H](NC(=O)[C@@H](NC(=O)c1[nH]c(C)c(C)c1C(C)=O)C1CCCCC1)C(C)(C)C)C(=O)C(=O)NC1CC1 [Compound 68]	< 500 nM	< 500 nM
